Consider 7 compounds from PMC12263630 (Frontiers in Pharmacology, 2025).

In general, EC50 refers to the concentration needed to bring the measured effect to its halfway point. A higher EC50 goes with a less potent agent. Usually Tmax stands for the time at which the peak concentration occurs.

Read-outs that look alike come from different tables or passages of the source.

The target of data set [1] is T1, human α2A adrenergic receptor (Homo sapiens, UniProt P08913).
T1 construct: expressed in transfected cells; host or cells: Chem-1 (rat hematopoietic cell line), membranes
T1 sequence (P08913 1-465): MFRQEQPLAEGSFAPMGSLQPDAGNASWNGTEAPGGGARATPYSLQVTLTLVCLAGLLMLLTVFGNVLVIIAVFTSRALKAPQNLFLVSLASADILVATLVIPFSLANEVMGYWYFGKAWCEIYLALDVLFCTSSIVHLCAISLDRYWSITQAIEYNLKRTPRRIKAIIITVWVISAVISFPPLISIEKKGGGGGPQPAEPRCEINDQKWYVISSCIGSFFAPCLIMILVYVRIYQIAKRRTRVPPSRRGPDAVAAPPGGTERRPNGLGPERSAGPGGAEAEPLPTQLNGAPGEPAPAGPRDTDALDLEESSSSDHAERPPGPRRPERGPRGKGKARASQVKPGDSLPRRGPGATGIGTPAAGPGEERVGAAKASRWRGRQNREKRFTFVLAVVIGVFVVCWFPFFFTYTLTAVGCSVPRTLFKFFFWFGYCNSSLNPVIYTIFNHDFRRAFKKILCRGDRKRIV
The data set is described as follows: [35S]GTPγS binding assay, α2A. The format is biochemical. Conditions: α2AR; relative to maximal response of UK-14304. As for the experimental part:
(§1) Cells were transfected with constructs encoding either human α2A (Chem-1, rat hematopoietic cell line), or α2B or α2C (Cho-K1, Chinese hamster ovary cell line) adrenergic receptors. Each test compound was prepared in DMSO at 10 mM and diluted to indicated concentrations in the incubation buffer (20 mM HEPES, 100 mM NaCl, 10 mM MgCl2, 1 mM DTT, 1 mM EDTA, pH 7.4.
(§2) Binding data were generated as duplicates. […] Three parameter logistic equations were fitted to the data to obtain EC50 and Emax values.
(In general: GTPγS resists hydrolysis and so accumulates on activated G proteins.)

Data set [2] has as its target T2, human α2C adrenergic receptor (Homo sapiens, UniProt P18825).
T2 sequence (P18825 1-462): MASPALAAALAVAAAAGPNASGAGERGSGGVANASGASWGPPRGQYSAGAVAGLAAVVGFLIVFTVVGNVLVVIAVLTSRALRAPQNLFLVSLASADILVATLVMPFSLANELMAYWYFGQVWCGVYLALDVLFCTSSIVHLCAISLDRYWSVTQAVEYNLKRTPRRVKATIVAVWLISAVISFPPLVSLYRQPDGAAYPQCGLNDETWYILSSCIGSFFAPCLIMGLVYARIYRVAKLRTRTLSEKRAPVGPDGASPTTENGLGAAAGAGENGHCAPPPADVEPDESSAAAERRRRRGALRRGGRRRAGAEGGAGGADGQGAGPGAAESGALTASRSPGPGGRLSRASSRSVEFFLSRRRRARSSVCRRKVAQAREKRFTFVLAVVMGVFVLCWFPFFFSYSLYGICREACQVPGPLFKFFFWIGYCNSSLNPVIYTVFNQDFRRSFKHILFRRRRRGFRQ
Put plainly: [35S]GTPγS binding assay, α2C. It counts as biochemical. To be noted: for Max activity / EC50: α2CR; for Max activity: relative to maximal response of UK-14304; for EC50: [35S]GTPγS binding. As for the experimental part:
as §1, §2

Another data set concerns the target T3, human α2A adrenoceptor (Homo sapiens, UniProt P08913).
T3 construct: expressed in transfected cells
T3 sequence (P08913 1-465): T1 sequence (P08913 1-465)
The data set is described as follows: β-arrestin recruitment chemiluminescent assay (PathHunter), α2A. To be noted: α2AR, relative to UK-14304. The format is cell-based. As for the experimental part:
(§3) PathHunter cell lines were expanded from freezer stocks according to standard procedures. Cells were seeded in a total volume of 20 μL into white walled, 384-well microplates and incubated at 37°C for the appropriate time prior to testing. Intermediate dilution of sample stocks was performed to generate 5X sample in assay buffer. […] Vehicle concentration was 1%. […] Microplates were read following signal generation with a PerkinElmer Envision™ instrument for chemiluminescent signal detection.
In general terms: Activated receptors often draw arrestin, which recruitment assays turn into a signal.

Another data set addresses T4, human α2C adrenoceptor (Homo sapiens, UniProt P18825).
T4 construct: expressed in transfected cells
T4 sequence (P18825 1-462): T2 sequence (P18825 1-462)
The data set is described as follows: β-arrestin recruitment chemiluminescent assay (PathHunter), α2C. The format is cell-based. To be noted: α2CR; for Max activity: relative to UK-14304. The protocol:
as §3

The test system of another data set is motor coordination. Put plainly: Rotarod test. Conditions: 4 mg/kg i.p., 30 min before test; p < 0.01. As for the experimental part: 75 male Swiss mice (6 weeks old, 29–41 g body weight range at the beginning of the experiment) were supplied by Janvier Labs (Le Genest St Isle, France). […] Environmental enrichment such as gnawing and nesting material was provided.
On Day 0, mice were submitted to two training trials separated by a 5-min interval. For each trial, mice were placed on a rod (diameter: 7 cm) rotating at a speed of 18 revolutions per minute for a 3-min period. On Day 1, a final training was performed in the morning (at least 2 h before the drug testing). On Day 1, the test session was performed at least 2 h after the habituation period (in the afternoon) and mice were placed on the rod for a maximum period of 3 min. The latency to fall off the rod was recorded. Data was analyzed by using one-way ANOVA followed by Dunnett’s comparisons test.75 male Swiss mice (6 weeks old, 29–41 g) were allocated into five groups (10–15 animals per group).
For orientation: In the rotarod test animals must keep their balance on a rotating rod.

The test system of the next data set is CCK-4 induced anxiety. Put plainly: CCK-4 elevated plus maze test.
For data set [3], the system named is stress-induced immobility. The data set is described as follows: Forced swim test. The format is in vivo, SD rats. To be noted: versus vehicle; for immobility time: 60 min prior.
Method: A total of 78 male SD rats (9–10 weeks old) were procured from Hylasco Biotechnology Pvt. Ltd., Hyderabad, India and were divided into seven groups (9–12 animals per group). Animals were housed in an environmentally controlled room at 22°C ± 3°C and relative humidity of 30–70 percent. Adequate fresh air supply of 12–15 air changes/hour was maintained. The temperature was maintained at 20°C–23°C. […] The lights of the acclimatization area were switched off at 06:00 p.m. Two rats per cage were housed in sterilized suspended standard, polysulfone cages, (Size: approximately L425 x B266 x H185 mm), with stainless steel top grills having facilities for holding pelleted food and drinking water in polycarbonate bottles with stainless steel sipper tubes. During the study period animals were housed in a single room. Animals received food and water ad libitum.
The test was carried out in transparent cylindrical glass containers measuring 46 cm in height and 20 cm in diameter. The containers were filled with water (23°C–25 °C) to a depth of 30 cm. Clean drying cages, heat lamps and heat pads were used for the animals that have finished the procedure to avoid hypothermia. The test was carried out in Dark Phase. […] A red bulb of 50 W was used for observation during Swim 1 and Swim 2 procedure. Swim 1 was carried out between 18:30 to 21:30 and Swim 2 was carried out between 19:30 to 21:30.
On test day, animals were dosed intramuscularly with respective treatment 60 min prior to performing FST. […] In swim 2, the first 1-min data was excluded from analysis and the remaining 5 min data was considered.
Rats were placed in the water-filled cylinder for 6 min during Swim 2. […] A rat was judged to be immobile when it remained floating in the water without struggling and was making only those movements necessary to keep its head above water. […] Water was changed after every session to avoid any influence on the next rat. […] The rats were placed in a swim chamber and behaviors were measured for 5 min on test day. Data was presented as total immobility time (in seconds) over the 5-min trial.
Data set [4] has as its target T5, human α2B adrenergic receptor (Homo sapiens, UniProt P18089).
T5 sequence (P18089 1-450): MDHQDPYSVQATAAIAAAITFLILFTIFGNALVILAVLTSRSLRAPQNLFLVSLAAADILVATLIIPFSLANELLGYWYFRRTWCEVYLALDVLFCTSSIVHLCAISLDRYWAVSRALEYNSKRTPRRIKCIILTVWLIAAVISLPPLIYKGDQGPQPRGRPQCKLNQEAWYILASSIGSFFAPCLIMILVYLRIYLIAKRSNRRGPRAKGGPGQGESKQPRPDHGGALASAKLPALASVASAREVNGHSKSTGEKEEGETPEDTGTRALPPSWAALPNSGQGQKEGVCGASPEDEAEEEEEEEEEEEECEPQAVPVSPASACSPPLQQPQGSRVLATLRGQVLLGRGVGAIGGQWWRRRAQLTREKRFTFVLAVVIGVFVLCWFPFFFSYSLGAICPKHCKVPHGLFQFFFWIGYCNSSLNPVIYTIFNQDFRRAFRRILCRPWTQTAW
The data set is described as follows: biochemical. The protocol: as §1, §2

In a further data set the target is human α2B adrenoceptor (Homo sapiens, UniProt P18089). Put plainly: cell-based. The protocol: as §3
A further data set can be described thus: in vivo. To be noted: male, Sprague Dawley, rat. The protocol:
Male Sprague Dawley (SD) rats, 200–250 g, purchased from Charles River Laboratories (South San Francisco, CA) were used for microdialyses studies. Upon arrival, rats were group-housed in polycarbonate cages (2-3 rats per cage) and acclimated for at least 7 days prior to commencing the studies. […] Rats were tracked via unique identifying numbers.
Ten male SD rats with a jugular vein (JV) cannula were used in this study. Rats were anesthetized using isoflurane (2%, 800 mL/min O2). Bupivacaine was used for local anesthesia and carprofen for peri-/post-operative analgesia. Animals were placed in a stereotaxic frame (Kopf instruments, United States) and MetaQuant microdialysis probes (PAN membrane, BrainLink, Netherlands) were implanted into the prefrontal cortex (PFC), 4 mm exposed surface. Coordinates for the tips of the probes for the PFC are: antero-posterior (AP) = +3.4 mm from bregma, lateral (L) = −0.8 mm from midline and ventral (V) = −5.0 mm from dura, the toothbar set at −3.3 mm. […] The microdialysis probes were connected with flexible PEEK tubing to a microperfusion pump (Harvard PHD 2000 Syringe pump, Holliston, MA). […] Microdialysis samples were collected for 30 min periods by an automated fraction collector (820 Microsampler, Univentor, Malta) into 300 µL polypropylene mini-vials. […]

For the next data set, the system named is sleep onset latency. The text has this: Chow and water were provided ad libitum for the duration of the study.
The conditions of data set [5]: assumed for free plasma calculation; ref Bol et al., 1997; cited from earlier work.
Data set [6] has as its system stress-induced immobility after repeated stress. The data set is described as follows: Open space swim test. To be noted: for time spent in the periphery, change vs vehicle controls / mean duration of immobility, change vs vehicle controls / mean distance travelled, change vs vehicle controls: Day 8, 40 μg/kg i.p. acute; for time spent in the periphery, change vs vehicle controls: p < 0.001.

The next data set has as its system memory consolidation. Put plainly: Cued fear conditioning test. To be noted: 10 and 20 μg/kg, 30 min before conditioning.
Where [7] appears, read: daily i.p. Day 8 to Day 32, 40 μg/kg, p < 0.0001.

From the text for CCK-4 induced anxiety: 48 male Wistar rats were supplied by Janvier (Le Genest St Isle, France) for this study. They were purchased at a body weight of 150 g and reached a body weight of about 270 g at the time of use.
In the present study, 12 animals per group were used. The apparatus is a PVC maze covered with Plexiglas and subdivided into four equal exploratory arms (40 × 10 cm), which are all interconnected by a small platform (10 × 10 cm). The apparatus is placed 65 cm above the floor. Two arms are open, and two others are closed with transparent wall (high: 10 cm).
After compound administration, a rat is placed on the platform opposite a closed arm. The number of entries and the time spent on each arm are recorded during a 5 min period. The animal is considered as entered in an arm when it places its four paws in the arm. The apparatus was cleaned between each animal using alcohol (70%). Urine and feces were removed from the maze. Data were analyzed by One way ANOVA followed by Dunnett’s comparisons test. CCK-4 (0.2 mg/kg) was administered intraperitoneally in the Wistar rats 30 min prior to the test. […] 60 min prior to the study (30 min prior to CCK-4 administration). Diazepam (1 mg/kg) was administered 30 min prior to study (at the time of CCK-4 administration). After the administration of compounds, rats were placed on the platform opposite a closed arm in the elevated plus maze. The number of entries and the time spent in each arm were recorded during a 5 min period. The animal was considered as entered in an arm when it placed its four paws in the arm.
From the text for memory consolidation: Rats were housed 1 animal per cage in sterilized solid bottom polycarbonate cages (Dimensions 42.5 cm [L] X 26.5 cm [W] X 18.5 cm [H]) with stainless steel grill tops, facilitate for food and water bottle, and bedding of corncob husk.
Rodent fear conditioning chambers (L x W x H, rat: 26 × 30 × 33 cm, Coulbourn instruments. United States) placed in sound attenuating cabinets were used. Stainless steel grid floors (L x W, rat: 26 × 30 cm), connected to shock scramblers were used to deliver the shock. A ventilation fan provided a background noise of 60 dB. A light bulb (centered on the right wall, and 27 cm above the floor of the chamber) provided ambient illumination. Experiments were recorded using video camera, mounted on the cabinet ceiling and images were analyzed with freeze frame 3 software (V3.2.1). The fear conditioning chambers have transparent acrylic panels. All experimentations were carried out in a single fear conditioning chamber.
On day 0, animals were randomized into eight groups based on their body weight.
Session-I: On day 1 (N = 5), rats were brought to the laboratory at least 1 h prior to experimentation. […]
On day 2, rats were brought to the laboratory at least 1 h prior to experimentation. […] The freezing behavior of the animals was recorded for 6 min (starting from the time the animal placed in the fear conditioning chamber). […]

Regarding `Clc1cccc(Cl)c1N=C1NCCN1` [Clonidine], the Max activity in data set [1] is 76%; in [2], 32%; at human α2A adrenoceptor, 93%; on human α2C adrenoceptor it was 8%. Also, the “intrinsic activity at the α2C-AR” value in [2] (in words, repeated in two assay systems) is on record as “very low intrinsic activity”.

For the compound `CN1C(=O)CN=C(c2ccccc2)c2cc(Cl)ccc21` [Diazepam], the “latency to fall-off, change vs vehicle controls” value in the data set with motor coordination is given as −60%. In addition, the “effects in elevated plus maze, positive control” value with CCK-4 induced anxiety (1 mg/kg, 30 min prior, with CCK-4) is reported as “exceeded those measured in vehicle animals”.

As for Cholecystokinin tetrapeptide [CCK-4], in the data set on CCK-4 induced anxiety (CCK-4 0.2 mg/kg i.p. alone, vehicle 4.3), the “number of entries in the open arms” value was found to be 1.3. In addition, the “time spent in the open arms” value with CCK-4 induced anxiety (CCK-4 0.2 mg/kg i.p. alone, vehicle 45 s) was 6 s.

As to `CN(C)CCCN1c2ccccc2CCc2ccccc21` [imipramine], the “immobility time, positive control” value in data set [3] (30 mg/kg) is “p = 0.0002 versus vehicle”.

With `Cc1cccc([C@H](C)c2cnc[nH]2)c1C` [Dexmedetomidine], the Max activity in data set [1] is 89%; in data set [4] it was 147%; in data set [2] it was 110%; at human α2A adrenoceptor, 101%; on human α2B adrenoceptor, 106%; on human α2C adrenoceptor, 95%. Besides, the half-maximal effective concentration (EC50) in data set [4] came to 2.8 nM; in [2], 14 nM; at human α2B adrenoceptor it was 0.6 nM; at human α2C adrenoceptor it was 24 nM. Moreover, the Tmax in “in vivo” lay within 30 to 60 min. Besides, the immobility time result is on record as “significantly decreased” in data set [3] (1 μg/kg intramuscular, p = 0.0238) and “significantly decreased” in data set [3] (5 μg/kg intramuscular, p < 0.0001). Also, the “onset of SWS” value with sleep onset latency (5 μg/kg intramuscular) and in the data set on sleep onset latency (20 μg/kg intramuscular) was “significantly reduced” in each case. The “bound to plasma proteins” value in data set [5] is recorded as 84%. The “time spent in the periphery, change vs vehicle controls” value in [6] (first treated group) is reported as “+159%”; in data set [6] (second treated group), “+138%”. For the same compound, the “mean duration of immobility, change vs vehicle controls” value in data set [6] (first treated group, p < 0.01) is listed as −43%; in data set [6] (second treated group, p < 0.01), −36%. Further, the “mean distance travelled, change vs vehicle controls” value is “+31%” in data set [6] (first treated group, p < 0.05) and “+36%” in data set [6] (second treated group, p < 0.01). Also, the “mean distance travelled over the testing period” value in data set [6] (setting [7]) was “increased”. Moreover, in [6] (setting [7]), the “mean duration of immobility over the testing period” value was “decreased”. The “time spent in the periphery over the testing period” value in data set [6] (setting [7]) was “increased”. The “memory formation (duration of freezing)” value in the data set on memory consolidation is given as “did not impair memory formation”.

With `N=C(N)NC(=O)Cc1c(Cl)cccc1Cl` [Guanfacine], the Max activity in data set [1] worked out at 78%; in data set [2], 72%; on human α2A adrenoceptor, 100%; at human α2C adrenoceptor it was 68%.

Consider `CC(Oc1c(Cl)cccc1Cl)C1=NCCN1` (centres unmarked) [Lofexidine], for which the figures for the EC50 in data set [4] and in [2] were 43 nM and 23 nM, respectively. Moreover, the Max activity is 97% in data set [4] (α2BR, relative to maximal response of UK-14304) and 50% in [2].
